From ChEMBL document CHEMBL1201862, “PubChem BioAssay data set” (2004)
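1) Cells in 96-well plates. 2) Compound, 48 h, 5 concentrations. 3) Linear interpolation between surrounding doses. 4) Unreached endpoint = highest concentration. GI50 is the concentration that inhibits growth by half.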 Activity calls are given as the source filed them. Rule as the data show it: active = GI50 up to about 1.1 µM and inactive = higher.

Tests used:
Experiment in all cases: inhibition of tumour cell growth, NCI panel, 48 h
[1] = test system: PC-3
[2] = test system: SF-539
[3] = test system: SNB-19
[4] = test system: KM12
[5] = test system: ACHN
[6] = test system: SF-295
[7] = test system: 786-0
[8] = test system: HL-60
[9] = test system: HOP-62
[10] = test system: Malme-3M
[11] = test system: SNB-75
[12] = test system: MOLT-4
[13] = test system: HT-29
[14] = test system: HOP-92
[15] = test system: A549
[16] = test system: HCT-116
[17] = test system: IGROV-1
[18] = test system: NCI-H522
[19] = test system: OVCAR-4
[20] = test system: NCI-H226
[21] = test system: OVCAR-3
[22] = test system: NCI-H23
[23] = test system: SR
[24] = test system: CCRF-CEM
[25] = test system: TK-10
[26] = test system: SW-620
[27] = test system: RXF 393
[28] = test system: SF-268
[29] = test system: HCC 2998
[30] = test system: NCI/ADR-RES
[31] = test system: COLO 205
[32] = test system: SK-MEL-28
[33] = test system: MCF7
[34] = test system: UACC-62
[35] = test system: UACC-257
[36] = test system: DU-145
[37] = test system: T47D
[38] = test system: U-251
[39] = test system: EKVX
[40] = test system: BT-549
[41] = test system: OVCAR-8
[42] = test system: K562
[43] = test system: MDA-MB-435
[44] = test system: Hs-578T
[45] = test system: UO-31
[46] = test system: HCT-15
[47] = test system: NCI-H460
[48] = test system: SK-MEL-5
[49] = test system: A498
[50] = test system: LOX IMVI
[51] = test system: RPMI-8226
[52] = test system: SK-MEL-2
[53] = test system: SN12C
[54] = test system: MDA-MB-231
[55] = test system: CAKI-1
[56] = test system: OVCAR-5
[57] = test system: MDA-N
[58] = test system: M14
[59] = test system: SK-OV-3

Cc1nc2ccc(F)cc2c2c1CCN2c1ccccc1
GI50 [1]: 19.1 µM (inactive) | GI50 [2]: 21 µM (inactive) | GI50 [3]: 32.8 µM (inactive) | GI50 [4]: 23.9 µM (inactive) | GI50 [5]: 21.1 µM (inactive) | GI50 [6]: 11.7 µM (inactive) | GI50 [7]: 23 µM (inactive) | GI50 [8]: 7.43 µM (inactive) | GI50 [9]: 32.9 µM (inactive) | GI50 [10]: 20.2 µM (inactive) | GI50 [11]: 12.8 µM (inactive) | GI50 [12]: 15.1 µM (inactive) | GI50 [13]: 8.51 µM (inactive) | GI50 [14]: 12.2 µM (inactive) | GI50 [15]: 22.6 µM (inactive) | GI50 [16]: 8.18 µM (inactive) | GI50 [17]: 18.6 µM (inactive) | GI50 [18]: 17.8 µM (inactive) | GI50 [19]: 23.7 µM (inactive) | GI50 [20]: 16.6 µM (inactive) | GI50 [21]: 30.5 µM (inactive) | GI50 [22]: 20 µM (inactive) | GI50 [23]: 16.7 µM (inactive) | GI50 [24]: 21.5 µM (inactive) | GI50 [25]: 22.9 µM (inactive) | GI50 [26]: 23.4 µM (inactive) | GI50 [27]: 15 µM (inactive) | GI50 [28]: 23.3 µM (inactive) | GI50 [29]: 18.1 µM (inactive) | GI50 [30]: 18.3 µM (inactive) | GI50 [31]: 11.9 µM (inactive) | GI50 [32]: 16.2 µM (inactive) | GI50 [33]: 28.1 µM (inactive) | GI50 [34]: 12 µM (inactive) | GI50 [35]: 18.2 µM (inactive) | GI50 [36]: 31.4 µM (inactive) | GI50 [37]: 23.7 µM (inactive) | GI50 [38]: 26 µM (inactive) | GI50 [39]: 22.4 µM (inactive) | GI50 [40]: 23.4 µM (inactive) | GI50 [41]: 20.9 µM (inactive) | GI50 [42]: 11.8 µM (inactive) | GI50 [43]: 14.1 µM (inactive) | GI50 [44]: 17.9 µM (inactive) | GI50 [45]: 19 µM (inactive) | GI50 [46]: 25.9 µM | GI50 [47]: 13.5 µM (inactive) | GI50 [48]: 12.9 µM (inactive) | GI50 [49]: 27.6 µM (inactive) | GI50 [50]: 13.8 µM (inactive) | GI50 [51]: 15.8 µM (inactive)

COc1nc2c(c(=O)[nH]1)N=C(c1ccc(Cl)cc1)CC(c1ccccc1)N2 (stereo unspecified)
GI50 [1]: 43.5 µM (inactive) | GI50 [2]: 21.6 µM (inactive) | GI50 [3]: 35.6 µM (inactive) | GI50 [4]: 37.2 µM (inactive) | GI50 [5]: 23.1 µM (inactive) | GI50 [6]: 23.1 µM (inactive) | GI50 [7]: 37.6 µM (inactive) | GI50 [9]: 53.6 µM (inactive) | GI50 [11]: 20.8 µM (inactive) | GI50 [12]: 35.6 µM (inactive) | GI50 [52]: 21.3 µM (inactive) | GI50 [13]: 34.5 µM (inactive) | GI50 [14]: 24.1 µM (inactive) | GI50 [53]: 22.7 µM (inactive) | GI50 [15]: 33.4 µM (inactive) | GI50 [16]: 34.3 µM (inactive) | GI50 [17]: 31.9 µM (inactive) | GI50 [54]: 23.8 µM (inactive) | GI50 [18]: 20.3 µM (inactive) | GI50 [19]: 22.7 µM (inactive) | GI50 [55]: 28.2 µM (inactive) | GI50 [20]: 29.4 µM (inactive) | GI50 [21]: 37.8 µM (inactive) | GI50 [22]: 49.2 µM (inactive) | GI50 [23]: 61.4 µM (inactive) | GI50 [24]: 19.1 µM (inactive) | GI50 [56]: 49.9 µM (inactive) | GI50 [57]: 31 µM (inactive) | GI50 [26]: 44.6 µM (inactive) | GI50 [27]: 23.9 µM (inactive) | GI50 [29]: 34 µM (inactive) | GI50 [30]: 23.8 µM (inactive) | GI50 [31]: 38.8 µM (inactive) | GI50 [32]: 17.7 µM (inactive) | GI50 [33]: 39 µM (inactive) | GI50 [34]: 20.2 µM (inactive) | GI50 [35]: 36.8 µM (inactive) | GI50 [36]: 40.6 µM (inactive) | GI50 [38]: 35.6 µM (inactive) | GI50 [39]: 29.6 µM (inactive) | GI50 [40]: 31.2 µM (inactive) | GI50 [41]: 21.2 µM (inactive) | GI50 [42]: 28.1 µM (inactive) | GI50 [43]: 34 µM (inactive) | GI50 [45]: 29.6 µM (inactive) | GI50 [46]: 24.2 µM | GI50 [47]: 27.1 µM (inactive) | GI50 [58]: 17.3 µM (inactive) | GI50 [48]: 17.6 µM (inactive) | GI50 [49]: 33.3 µM (inactive) | GI50 [50]: 22.5 µM (inactive) | GI50 [51]: 28.4 µM (inactive)

COC(=O)/C=C/c1ccccc1N=[S@](C)(=O)c1ccc(C)cc1
GI50 [1]: 13.4 µM (inactive) | GI50 [2]: 21.8 µM (inactive) | GI50 [3]: 19.1 µM (inactive) | GI50 [4]: 8.53 µM (inactive) | GI50 [5]: 32.6 µM (inactive) | GI50 [6]: 5.96 µM (inactive) | GI50 [7]: 27.9 µM (inactive) | GI50 [8]: 2.32 µM (inactive) | GI50 [59]: 30.3 µM (inactive) | GI50 [9]: 24.2 µM (inactive) | GI50 [10]: 14 µM (inactive) | GI50 [11]: 6.21 µM (inactive) | GI50 [12]: 19.8 µM (inactive) | GI50 [52]: 21.8 µM (inactive) | GI50 [13]: 7.93 µM (inactive) | GI50 [14]: 35 µM (inactive) | GI50 [53]: 34.9 µM (inactive) | GI50 [15]: 27.9 µM (inactive) | GI50 [16]: 15.3 µM (inactive) | GI50 [17]: 18 µM (inactive) | GI50 [54]: 23.8 µM (inactive) | GI50 [18]: 2.86 µM (inactive) | GI50 [19]: 26.1 µM (inactive) | GI50 [55]: 15 µM (inactive) | GI50 [20]: 36.1 µM (inactive) | GI50 [21]: 14.6 µM (inactive) | GI50 [22]: 28.1 µM (inactive) | GI50 [23]: 3.49 µM (inactive) | GI50 [24]: 11.5 µM (inactive) | GI50 [56]: 36.1 µM (inactive) | GI50 [25]: 22.4 µM (inactive) | GI50 [26]: 8.89 µM (inactive) | GI50 [27]: 13.2 µM (inactive) | GI50 [28]: 29.4 µM (inactive) | GI50 [29]: 24.2 µM (inactive) | GI50 [30]: 7.13 µM (inactive) | GI50 [31]: 8.34 µM (inactive) | GI50 [32]: 16.4 µM (inactive) | GI50 [33]: 13.4 µM (inactive) | GI50 [34]: 8.24 µM (inactive) | GI50 [35]: 8.85 µM (inactive) | GI50 [36]: 29.1 µM (inactive) | GI50 [37]: 31.8 µM (inactive) | GI50 [38]: 17.7 µM (inactive) | GI50 [39]: 37.4 µM (inactive) | GI50 [40]: 33 µM (inactive) | GI50 [41]: 28.5 µM (inactive) | GI50 [42]: 4.09 µM (inactive) | GI50 [43]: 3.54 µM (inactive) | GI50 [44]: 18.7 µM (inactive) | GI50 [45]: 50.4 µM (inactive) | GI50 [46]: 6.14 µM | GI50 [47]: 18.4 µM (inactive) | GI50 [58]: 12.6 µM (inactive) | GI50 [48]: 5.62 µM (inactive) | GI50 [49]: 8.41 µM (inactive) | GI50 [50]: 23.5 µM (inactive) | GI50 [51]: 18 µM (inactive)
